Assay [1] concerns Cystic fibrosis transmembrane conductance regulator (Homo sapiens), P13569 [F508del]. Nature of the assay: Potentiation of CD4-HRP tagged CFTR F508del mutant NBD1 (unknown origin) expressed in MDCK cells assessed as increase in chloride current by measuring fold increase in luminescence signal incubated for 24 hrs relative to control. To be noted: filed as activator. The assay is classed as cell-based.

In assay [2] the target is Cystic fibrosis transmembrane conductance regulator (Homo sapiens, UniProt P13569, F508DEL). Nature of the assay: Potentiation of CFTR F508del mutant activity (unknown origin).
Assay [3] has as its target Cystic fibrosis transmembrane conductance regulator (Homo sapiens, UniProt P13569, W1282X). Nature of the assay: Potentiation of CFTR W1282X mutant (unknown origin) expressed in rat FRT cells. It is filed as cell-based.
Assay [4] deals with Cystic fibrosis transmembrane conductance regulator (Rattus norvegicus), P34158 [UNDEFINED MUTATION]. The assay is described as follows: Potency index, ratio of genistein EC50 to test compound EC50 for potentiation of CFTR F508del mutant in rat FRT cells assessed as increase in iodide influx in presence of forskolin. The assay is classed as cell-based.
In assay [5] the target is Cystic fibrosis transmembrane conductance regulator (Rattus norvegicus, UniProt P34158, F508DEL). Nature of the assay: Potentiation of CFTR F508del mutant in rat FRT cells assessed as increase in iodide influx in presence of forskolin. The assay is classed as cell-based.
In assay [6] the test system is Cystic fibrosis transmembrane conductance regulator (Homo sapiens), P13569 [F508del]. The assay is described as follows: Potentiation of CFTR F508del mutant (unknown origin) expressed in rat FRT cells assessed as increase in chloride current by measuring maximal effect at 30 uM in presence of forskolin relative to control. It is filed as cell-based. To be noted: filed as activator.

Cystic fibrosis transmembrane conductance regulator (Homo sapiens), P13569 [F508del], sequence (P13569 as listed by the source): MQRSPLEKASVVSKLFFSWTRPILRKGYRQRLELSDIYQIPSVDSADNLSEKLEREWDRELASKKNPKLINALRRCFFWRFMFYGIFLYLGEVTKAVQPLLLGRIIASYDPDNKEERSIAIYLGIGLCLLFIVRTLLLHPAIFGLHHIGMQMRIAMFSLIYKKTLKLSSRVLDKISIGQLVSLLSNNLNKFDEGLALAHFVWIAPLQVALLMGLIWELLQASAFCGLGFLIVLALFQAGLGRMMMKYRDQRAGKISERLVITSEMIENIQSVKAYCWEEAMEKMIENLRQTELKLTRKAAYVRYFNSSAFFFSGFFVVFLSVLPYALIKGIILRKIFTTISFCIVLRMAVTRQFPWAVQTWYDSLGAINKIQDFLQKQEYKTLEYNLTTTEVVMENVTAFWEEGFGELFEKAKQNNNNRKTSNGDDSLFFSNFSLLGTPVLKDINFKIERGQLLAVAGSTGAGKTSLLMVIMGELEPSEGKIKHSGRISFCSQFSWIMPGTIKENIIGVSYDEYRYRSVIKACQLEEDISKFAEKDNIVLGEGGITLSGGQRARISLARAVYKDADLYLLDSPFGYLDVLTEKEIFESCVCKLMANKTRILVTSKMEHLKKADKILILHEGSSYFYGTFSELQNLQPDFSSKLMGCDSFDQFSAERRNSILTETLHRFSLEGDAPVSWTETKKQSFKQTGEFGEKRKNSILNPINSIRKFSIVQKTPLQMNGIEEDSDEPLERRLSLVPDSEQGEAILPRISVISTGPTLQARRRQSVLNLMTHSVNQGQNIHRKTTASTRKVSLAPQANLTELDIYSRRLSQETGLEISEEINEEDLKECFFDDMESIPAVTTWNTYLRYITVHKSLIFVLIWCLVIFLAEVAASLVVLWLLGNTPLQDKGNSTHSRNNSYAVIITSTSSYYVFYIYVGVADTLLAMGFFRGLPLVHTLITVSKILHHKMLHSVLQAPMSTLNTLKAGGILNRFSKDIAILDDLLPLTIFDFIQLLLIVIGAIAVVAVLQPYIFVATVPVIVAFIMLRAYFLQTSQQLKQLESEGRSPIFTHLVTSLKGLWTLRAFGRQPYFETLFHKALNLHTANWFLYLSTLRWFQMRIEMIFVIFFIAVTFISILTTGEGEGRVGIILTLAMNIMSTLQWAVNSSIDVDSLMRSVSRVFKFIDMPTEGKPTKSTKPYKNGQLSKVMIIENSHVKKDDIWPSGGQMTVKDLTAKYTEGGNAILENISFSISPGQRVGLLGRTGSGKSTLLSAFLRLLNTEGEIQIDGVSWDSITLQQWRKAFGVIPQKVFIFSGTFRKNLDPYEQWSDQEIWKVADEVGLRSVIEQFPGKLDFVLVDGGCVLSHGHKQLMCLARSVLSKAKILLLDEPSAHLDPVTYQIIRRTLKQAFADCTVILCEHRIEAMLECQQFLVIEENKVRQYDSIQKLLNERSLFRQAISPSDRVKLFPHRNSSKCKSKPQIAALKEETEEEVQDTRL
Cystic fibrosis transmembrane conductance regulator (Homo sapiens, UniProt P13569, F508DEL), sequence (P13569 as listed by the source): as above
Cystic fibrosis transmembrane conductance regulator (Rattus norvegicus, UniProt P34158, F508DEL), sequence (P34158 whole entry F508del, looked up): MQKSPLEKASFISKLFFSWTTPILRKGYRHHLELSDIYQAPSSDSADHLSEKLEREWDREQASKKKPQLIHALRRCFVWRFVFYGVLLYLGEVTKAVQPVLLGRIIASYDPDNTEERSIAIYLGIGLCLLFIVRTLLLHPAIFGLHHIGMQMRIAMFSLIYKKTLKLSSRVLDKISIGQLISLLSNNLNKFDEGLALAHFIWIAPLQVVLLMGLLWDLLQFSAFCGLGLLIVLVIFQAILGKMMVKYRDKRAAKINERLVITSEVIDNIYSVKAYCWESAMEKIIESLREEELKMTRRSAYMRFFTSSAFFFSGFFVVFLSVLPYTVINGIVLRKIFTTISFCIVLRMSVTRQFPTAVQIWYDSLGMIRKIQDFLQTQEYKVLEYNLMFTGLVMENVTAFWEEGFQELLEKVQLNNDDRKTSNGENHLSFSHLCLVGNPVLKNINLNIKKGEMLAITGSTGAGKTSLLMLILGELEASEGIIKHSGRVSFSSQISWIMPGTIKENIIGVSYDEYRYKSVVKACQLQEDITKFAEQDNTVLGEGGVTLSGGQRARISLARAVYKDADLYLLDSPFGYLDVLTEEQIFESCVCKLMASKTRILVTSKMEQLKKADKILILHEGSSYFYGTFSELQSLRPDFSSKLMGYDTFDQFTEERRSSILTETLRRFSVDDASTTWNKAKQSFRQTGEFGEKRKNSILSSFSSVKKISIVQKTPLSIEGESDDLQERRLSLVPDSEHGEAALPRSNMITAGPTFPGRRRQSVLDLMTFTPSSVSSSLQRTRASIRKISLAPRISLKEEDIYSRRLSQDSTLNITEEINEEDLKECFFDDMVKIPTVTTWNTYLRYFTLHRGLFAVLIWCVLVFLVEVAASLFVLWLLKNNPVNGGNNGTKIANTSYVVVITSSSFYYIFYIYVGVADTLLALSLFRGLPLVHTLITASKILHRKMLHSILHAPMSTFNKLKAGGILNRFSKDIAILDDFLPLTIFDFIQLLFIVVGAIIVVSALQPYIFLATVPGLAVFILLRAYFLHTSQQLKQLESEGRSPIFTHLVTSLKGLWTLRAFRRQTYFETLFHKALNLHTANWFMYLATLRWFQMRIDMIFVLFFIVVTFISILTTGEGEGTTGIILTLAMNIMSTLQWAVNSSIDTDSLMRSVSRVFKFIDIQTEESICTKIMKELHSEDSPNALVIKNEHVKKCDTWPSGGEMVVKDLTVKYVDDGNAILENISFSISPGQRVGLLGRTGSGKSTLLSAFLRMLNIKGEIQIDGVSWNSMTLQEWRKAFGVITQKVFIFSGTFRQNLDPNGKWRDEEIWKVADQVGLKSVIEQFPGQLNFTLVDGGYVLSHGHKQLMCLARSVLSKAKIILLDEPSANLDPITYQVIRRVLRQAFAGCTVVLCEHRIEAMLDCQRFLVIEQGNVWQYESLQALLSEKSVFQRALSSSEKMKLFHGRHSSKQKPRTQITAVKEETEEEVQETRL
Cystic fibrosis transmembrane conductance regulator (Rattus norvegicus), P34158 [UNDEFINED MUTATION], sequence (P34158 whole entry, looked up, stated change not applied): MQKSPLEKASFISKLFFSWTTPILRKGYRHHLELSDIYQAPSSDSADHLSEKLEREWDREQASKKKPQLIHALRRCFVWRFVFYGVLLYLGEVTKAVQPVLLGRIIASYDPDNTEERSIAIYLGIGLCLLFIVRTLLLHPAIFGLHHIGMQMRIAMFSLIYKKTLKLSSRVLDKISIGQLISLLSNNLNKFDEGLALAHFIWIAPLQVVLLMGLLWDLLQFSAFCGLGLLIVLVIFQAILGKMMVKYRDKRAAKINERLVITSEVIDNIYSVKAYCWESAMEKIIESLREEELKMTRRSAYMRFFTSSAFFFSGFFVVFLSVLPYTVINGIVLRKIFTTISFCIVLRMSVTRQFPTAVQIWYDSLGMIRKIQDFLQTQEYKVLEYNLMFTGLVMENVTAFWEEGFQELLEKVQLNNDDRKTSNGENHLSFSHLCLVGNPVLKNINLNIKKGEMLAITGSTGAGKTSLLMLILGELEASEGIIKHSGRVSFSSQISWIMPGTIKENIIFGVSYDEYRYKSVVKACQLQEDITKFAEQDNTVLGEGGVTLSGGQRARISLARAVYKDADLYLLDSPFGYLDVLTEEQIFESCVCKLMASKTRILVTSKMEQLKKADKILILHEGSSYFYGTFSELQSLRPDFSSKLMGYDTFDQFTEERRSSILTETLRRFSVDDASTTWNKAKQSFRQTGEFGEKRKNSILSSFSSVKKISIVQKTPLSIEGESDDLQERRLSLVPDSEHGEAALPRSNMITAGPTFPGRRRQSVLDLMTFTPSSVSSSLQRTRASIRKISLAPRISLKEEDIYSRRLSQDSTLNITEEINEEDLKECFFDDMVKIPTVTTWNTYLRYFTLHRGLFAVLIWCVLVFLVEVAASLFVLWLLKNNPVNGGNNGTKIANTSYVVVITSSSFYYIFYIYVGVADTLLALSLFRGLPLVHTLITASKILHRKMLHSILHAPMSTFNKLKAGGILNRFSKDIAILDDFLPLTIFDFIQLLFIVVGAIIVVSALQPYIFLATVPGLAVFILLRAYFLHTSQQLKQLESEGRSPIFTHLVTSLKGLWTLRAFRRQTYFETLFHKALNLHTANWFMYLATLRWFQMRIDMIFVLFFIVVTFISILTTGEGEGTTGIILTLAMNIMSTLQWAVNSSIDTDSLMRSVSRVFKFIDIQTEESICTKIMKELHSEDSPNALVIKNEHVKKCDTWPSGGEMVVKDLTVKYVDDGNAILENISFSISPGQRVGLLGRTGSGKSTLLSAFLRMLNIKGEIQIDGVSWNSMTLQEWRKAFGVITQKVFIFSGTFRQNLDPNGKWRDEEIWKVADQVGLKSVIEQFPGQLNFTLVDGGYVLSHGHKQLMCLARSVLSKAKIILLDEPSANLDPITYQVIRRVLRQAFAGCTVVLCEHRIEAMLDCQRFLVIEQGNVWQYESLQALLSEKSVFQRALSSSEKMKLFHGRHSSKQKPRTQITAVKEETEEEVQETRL

Consider `COc1c(C(=O)NCc2ccc(F)cc2Cl)sc2ccccc12`, for which the fold change (FC) in assay [1] worked out at 2.

With `CN(C(=O)Cc1c[nH]c2ccccc12)[C@H](C(=O)Nc1ccc(F)cc1)c1ccccc1`, the EC50 in assay [2] stood at 0.09 µM.

With `CCc1ccc(NS(=O)(=O)c2cn(Cc3ccccc3C#N)c3ncccc23)cc1`, in assay [3], the 50% effective concentration (EC50) worked out at 0.7 µM.

In the case of `CCc1ccc(NS(=O)(=O)c2cn(Cc3ccccn3)c3ncccc23)cc1`, the EC50 in assay [3] worked out at 0.6 µM.

Regarding `CN(C(=O)Cc1c[nH]c2ccccc12)[C@H](C(=O)Nc1ccc(-n2cc(CCCF)nn2)cc1)c1ccccc1`, the EC50 in assay [2] turned out to be 1.1 µM.

For `CC(C)c1ccc(NC(=O)C(c2ccccc2)N(C)C(=O)Cc2c[nH]c3ccccc23)cc1` (stereo unspecified), in assay [4], the Ratio EC50 is 100. The EC50 in assay [5] amounted to 0.07 µM.

Regarding `CCCCCn1cc(S(=O)(=O)Nc2ccc(CC)cc2)c2cccnc21`, the concentration giving a half-maximal response (EC50) in assay [3] came to 1 µM.

As for `COc1c(C(=O)NCc2ccccc2Br)sc2ccccc12`, the fold change (FC) in assay [1] was determined as 2.4.

On to `COc1ccc(CNC(=O)c2sc3ccc(Cl)cc3c2OC)c(OC)c1`, for which the Activity in assay [6] is 50%.

Turning to `COc1cc(CNC(=O)c2sc3ccccc3c2OC)cc(OC)c1`, the fold change (FC) in assay [1] turned out to be 1.7.

The values above are taken from ChEMBL document CHEMBL5230114, “Current development of CFTR potentiators in the last decade” (Eur J Med Chem, 2020).
